These results are taken from patent US20040037806A1, “Aldosterone blocker therapy to prevent or treat inflammation-related disorders” (Pharmacia Corporation, priority 2002, published 2004).

Entries after “also recorded” stand apart in the source; their conditions may differ.

Assay type in all cases: in vivo, rat
One assay relates to osteopontin. Briefly: Assay A: osteopontin immunostaining of hearts. The following applies: angiotensin II-infused, saline-drinking Wistar rats; eplerenone 100 mpk; aldosterone replacement in adrenalectomized rats.
The subject of assay [1] is Monocyte Chemoattractant Protein-1 (MCP-1). Briefly: Assay C: MCP-1 mRNA, TaqMan. As to conditions: 7, 14, 30 days; aldosterone+salt alone or with eplerenone 100 mg/kg/day. How it is done: The procedure of Assay B was expanded upon in a further study. […] Myocardial tissue from animals in each treatment group was examined after 7, 14, or 30 days of treatment.
Potassium chloride supplementation was added to the saline solution in order to prevent the potential hypokalemia associated with aldosterone excess.
Treatment At the time of the surgery, an Alzet 2002 osmotic minipump (Alza Corp., Palo Alto, Calif.) containing either vehicle (9% ethanol/87% propylene glycol/4% dH2O) or 1.0 mg/mL d-aldosterone (Sigma Chemical, St. Louis, Mo.) was inserted subcutaneously at the nape of the neck. Aldosterone was administered at a dose of 0.75 µg/hour. […]
The fluorogenic 5′-nuclease assay (TaqMan PCR) using Applied Biosystems' 7700 Sequence Detection System (Applied Biosystems, Foster City, Calif.) allowed for real time detection/quantitation of a specific gene by monitoring the increase in fluorescence of a gene-specific, dye-labeled oligonucleotide probe. […] When the probe was annealed to the target gene, fluorescence of 6FAM was prevented by the close proximity of TAMRA. The exonuclease activity of Taq polymerase released the dyes from the oligonucleotide probe by displacing the probe from the target sequence resulting in fluorescence excitation in direct proportion to the amount of target message present. […]
In general terms: Quantitative PCR measures a nucleic acid by following its amplification.

A short description of assay [2]: Assay C: histopathologic analysis, semi-quantitative myocardial injury score 0 to 4. As to conditions: 7, 14 and 30 days; aldosterone+salt alone or with eplerenone 100 mg/kg/day. How it is done: The procedure of Assay B was expanded upon in a further study. […] Myocardial tissue from animals in each treatment group was examined after 7, 14, or 30 days of treatment. […] Lesions were preceded by the expression and progressive upregulation of proinflammatory molecules. […] Prior to surgery the animals were individually weighed and placed in one of the following groups: […] Potassium chloride supplementation was added to the saline solution in order to prevent the potential hypokalemia associated with aldosterone excess. Treatment At the time of the surgery, an Alzet 2002 osmotic minipump (Alza Corp., Palo Alto, Calif.) containing either vehicle (9% ethanol/87% propylene glycol/4% dH2O) or 1.0 mg/mL d-aldosterone (Sigma Chemical, St. Louis, Mo.) was inserted subcutaneously at the nape of the neck. Aldosterone was administered at a dose of 0.75 µg/hour. […] Animals were sacrificed from each group (n=8-13) after 7, 14, or 30 days of treatment. The equatorial regions of the heart were routinely processed into paraffin with an automated tissue processor (Hypercenter XP, Shandon/Lipshaw Inc., Pittsburgh, Pa.) and embedded into fresh paraffin apical side down (Shandon Embedding Center, Shandon/Lipshaw Inc.). […] Semi-quantification of myocardial injury was performed as described previously with minor modifications (7). […]

Consider `C[C@]12CCC(=O)C=C1CC[C@@H]1[C@@H]2[C@@H](O)C[C@]2(C=O)[C@@H](C(=O)CO)CC[C@@H]12` [aldosterone], for which, in the assay with osteopontin, the “Osteopontin expression in the heart (immunostaining)” value was “restored osteopontin expression”. In addition, the “MCP-1 mRNA expression in myocardium” value in assay [1] is reported as “significantly increased”. Also, the “Myocardial tissue damage (histopathology)” value in assay [2] is “No vascular or myocardial lesions; also recorded: focal arterial and myocardial alterations were observed starting at 14 days”.
Regarding `COC(=O)[C@@H]1CC2=CC(=O)CC[C@]2(C)[C@@]23O[C@@H]2C[C@@]2(C)[C@@H](CC[C@@]24CCC(=O)O4)[C@H]13` [eplerenone], the “Osteopontin expression in the heart (immunostaining)” value in the assay on osteopontin was “prevented osteopontin expression”. The “MCP-1 mRNA expression in myocardium” value in assay [1] was “significantly reduced; also recorded: inhibition of early time-course expression of myocardial MCP-1”. Also, the “Myocardial tissue damage (histopathology)” value in assay [2] is listed as “markedly attenuated myocardial injury at all time points”.
